This note sets out measurements from patent publication US9023789B2, “Amylin analogs and pharmaceutical compositions thereof” (Novo Nordisk A/S, priority 2012, dated 2015).

In general, IC50 refers to the concentration that gives 50% inhibition.

Data set [1] can be described thus: ASSAY (III) ThT fibrillation assay for physical stability. It counts as physicochemical. Summed up: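 Physical stability scored by ThT fluorescence (444 nm excitation, 485 nm emission) tracked every 20 min during 37 °C incubation with 960 rpm shaking, ThT at 1 μM final. Values are replicate means with SD at chosen times; HPLC against pramlintide standard gives initial and post-assay soluble concentrations.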

Data set [2] in a line: ASSAY (IV) determination of solubility. In kind it is physicochemical. Summed up:
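Samples of polypeptide, prepared from a water stock at […] and diluted 1:1 into 100 mM buffers spanning pH 3.0 to 8.0, stood 18 hours at room temperature. Polypeptide concentration was then determined by UPLC following centrifugation.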

Data set [3] addresses T1, rat amylin receptor (rat calcitonin receptor + rat RAMP 3) (Rattus norvegicus, UniProt P32214+Q9JJ73).
T1 construct: expressed in transfected cells; host or cells: BHK tk'ts 13 (transient, FuGENE 6), membranes
T1 sequence (P32214 25-479 isoform P32214-2 limits assumed): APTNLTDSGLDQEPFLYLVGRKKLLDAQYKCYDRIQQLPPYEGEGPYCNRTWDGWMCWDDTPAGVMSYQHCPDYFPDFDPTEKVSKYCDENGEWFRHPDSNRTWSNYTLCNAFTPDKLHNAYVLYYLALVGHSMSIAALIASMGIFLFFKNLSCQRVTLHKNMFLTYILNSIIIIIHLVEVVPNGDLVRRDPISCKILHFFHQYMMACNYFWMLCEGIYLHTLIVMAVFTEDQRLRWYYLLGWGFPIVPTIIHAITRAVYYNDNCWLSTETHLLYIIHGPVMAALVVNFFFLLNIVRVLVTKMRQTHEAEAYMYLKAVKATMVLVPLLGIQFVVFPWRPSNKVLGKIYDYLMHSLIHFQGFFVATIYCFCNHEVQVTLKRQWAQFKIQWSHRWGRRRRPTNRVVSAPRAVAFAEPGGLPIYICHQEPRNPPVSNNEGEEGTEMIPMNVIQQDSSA
T1 sequence (Q9JJ73 23-147 partner): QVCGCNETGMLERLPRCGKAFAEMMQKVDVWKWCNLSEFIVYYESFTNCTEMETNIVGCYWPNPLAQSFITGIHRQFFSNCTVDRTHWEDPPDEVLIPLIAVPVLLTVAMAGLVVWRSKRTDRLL
Briefly: ASSAY (VI) binding to the rat amylin receptor. As to conditions: for IC50: binding to rat amylin receptor, read-out: rAmylin-R bind IC50. Summed up:
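The cell-membrane assay assessed binding at the rat amylin receptor. BHK tk′ts 13 cells were transfected transiently with rat calcitonin receptor, with FuGENE® 6 (Roche) as the transfection reagent, used per the manufacturer's recommendations. Approximately 48 hours after transfection the cells were harvested, and membranes were prepared for measuring binding.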

The mark [4] stands for this setting: bistrispropane buffer, pH 6.5, read-out: Solubility pH 6.5 Concentration.
Where [5] appears, read: bistrispropane buffer, pH 7.5, read-out: Solubility pH 7.5 Concentration.
Where [6] appears, read: bistrispropane buffer, pH 6.0, read-out: Solubility pH 6.0 Concentration.
[7] abbreviates: bistrispropane buffer, pH 7.0, read-out: Solubility pH 7.0 Concentration.
Setting [8] is: bistrispropane buffer, pH 8.0, read-out: Solubility pH 8.0 Concentration.
Setting [9] is: glycylglycine buffer, pH 3.0, read-out: Solubility pH 3.0 Concentration.
[10] abbreviates: glycylglycine buffer, pH 4.0, read-out: Solubility pH 4.0 Concentration.
Where [11] appears, read: glycylglycine buffer, pH 5.0, read-out: Solubility pH 5.0 Concentration.
[12] abbreviates: Table 7, rat binding selectivity, rCTR IC50 / rAmylin-R IC50.
[13] abbreviates: Table 7a (preferred compounds), rat binding selectivity, rCTR IC50 / rAmylin-R IC50.
[14] abbreviates: ratio of rCTR bind IC50 to rAmylin-R bind IC50.

Read-outs that look alike come from different tables or passages of the source. Numbered stars: 1 amine (or outer) side, 2 acyl side, 3 side chain; on linkers, the order of the positions; unused ones are H or OH. Bridge positions count the residues as written; N and C are the ends. Side chains are listed from the residue outwards. Peptide text beside a SMILES is read from it. * marks the point of attachment. C20 diacid = O=C(O)CCCCCCCCCCCCCCCCCCC(=O)*; γGlu = O=C(O)[C@H](CCC(=O)[*:2])N[*:1] Bounds are passed on as bounds.

As to `CC[C@H](C)[C@H](NC(=O)[C@H](C)NC(=O)CNC(=O)[C@H](Cc1ccccc1)NC(=O)[C@H](CC(N)=O)NC(=O)[C@@H]1CCCN1C(=O)[C@H](CO)NC(=O)[C@H](CO)NC(=O)[C@H](Cc1c[nH]cn1)NC(=O)[C@H](CCCNC(=N)N)NC(=O)[C@H](CC(C)C)NC(=O)[C@H](Cc1ccccc1)NC(=O)[C@H](CCC(=O)O)NC(=O)[C@H](C)NC(=O)[C@H](CC(C)C)NC(=O)[C@H](CCCNC(=N)N)NC(=O)[C@H](CCC(N)=O)NC(=O)[C@@H](NC(=O)[C@H](C)NC(=O)[C@@H]1CSSC[C@H](NC(=O)[C@H](CCCCN)NC(=O)CC[C@H](NC(=O)CCCCCCCCCCCCCCCCCCC(=O)O)C(=O)O)C(=O)N[C@@H](CC(N)=O)C(=O)N[C@@H]([C@@H](C)O)C(=O)N[C@@H](C)C(=O)N[C@@H]([C@@H](C)O)C(=O)N1)[C@@H](C)O)C(=O)N1CCC[C@H]1C(=O)N[C@@H](CO)C(=O)N[C@@H](CO)C(=O)N[C@H](C(=O)N[C@@H](CC(N)=O)C(=O)N[C@H](C(=O)NCC(=O)N1CCC[C@H]1C(=O)N[C@@H](CC(N)=O)C(=O)N[C@H](C(=O)N[C@@H](Cc1ccc(O)cc1)C(N)=O)[C@@H](C)O)C(C)C)[C@@H](C)O` [Example 32] ({C20 diacid-γGlu}-KCNTATCATQRLAEFLRHSSPNFGAIPSSTNVGPNTY-NH2; disulfide 2-7), in data set [1], the “ThT pH 4.0 lag time (h)” value is recorded as 45 h. For the same compound, the solubility at 18 h in data set [2] (setting [4]), in data set [2] (setting [5]), in data set [2] (setting [6]), in data set [2] (setting [7]), in data set [2] (setting [8]) and in data set [2] (setting [9]) was at least 200 µM throughout. Besides, the solubility at 18 h in data set [2] (setting [10]) and in data set [2] (setting [11]) was at least 200 µM each time. In addition, the concentration for half-maximal inhibition (IC50) in data set [3] (Table 7) was 0.176 nM. Besides, the “Ratio rCT/rAmylin binding” value in data set [3] (setting [12]), in data set [3] (setting [13]) and in data set [3] (setting [14]) was 34.0 each time.

In the case of `CC[C@H](C)[C@H](NC(=O)[C@H](C)NC(=O)CNC(=O)[C@H](Cc1ccccc1)NC(=O)[C@H](CC(N)=O)NC(=O)[C@@H]1CCCN1C(=O)[C@H](CO)NC(=O)[C@H](CO)NC(=O)[C@H](Cc1c[nH]cn1)NC(=O)[C@H](CCCNC(=N)N)NC(=O)[C@H](CC(C)C)NC(=O)[C@H](Cc1ccccc1)NC(=O)[C@H](CCC(=O)O)NC(=O)[C@H](C)NC(=O)[C@H](CC(C)C)NC(=O)[C@H](CCCNC(=N)N)NC(=O)[C@H](CCC(N)=O)NC(=O)[C@@H](NC(=O)[C@H](C)NC(=O)[C@@H]1CSSC[C@H](NC(=O)[C@H](CCCCN)NC(=O)CC[C@H](NC(=O)CCCCCCCCCCCCCCCCCCC(=O)O)C(=O)O)C(=O)N[C@@H](CC(N)=O)C(=O)N[C@@H]([C@@H](C)O)C(=O)N[C@@H](C)C(=O)N[C@@H]([C@@H](C)O)C(=O)N1)[C@@H](C)O)C(=O)N[C@@H](CC(C)C)C(=O)N1CCC[C@H]1C(=O)N[C@@H](CO)C(=O)N[C@H](C(=O)N[C@@H](CC(N)=O)C(=O)N[C@H](C(=O)NCC(=O)N[C@@H](CO)C(=O)N[C@@H](CCC(=O)O)C(=O)N[C@H](C(=O)N[C@@H](Cc1ccc(O)cc1)C(N)=O)[C@@H](C)O)C(C)C)[C@@H](C)O` [Example 33] ({C20 diacid-γGlu}-KCNTATCATQRLAEFLRHSSPNFGAILPSTNVGSETY-NH2; disulfide 2-7), in data set [1], the “ThT pH 4.0 lag time (h)” value turned out to be 9 h. Besides, the solubility at 18 h in data set [2] (setting [4]), in data set [2] (setting [5]), in data set [2] (setting [6]), in data set [2] (setting [7]), in data set [2] (setting [8]) and in data set [2] (setting [9]) was at least 200 µM in each case. For the same compound, the solubility at 18 h in data set [2] (setting [10]) and in data set [2] (setting [11]) was at least 200 µM in each case. Besides, in data set [3] (Table 7), the IC50 was 2.29 nM. Further, the “Ratio rCT/rAmylin binding” value in data set [3] (setting [12]) and in data set [3] (setting [13]) was 12.6 each time.

Turning to `CC[C@H](C)[C@H](NC(=O)[C@H](C)NC(=O)CNC(=O)[C@H](Cc1ccccc1)NC(=O)[C@H](CC(N)=O)NC(=O)[C@@H]1CCCN1C(=O)[C@H](CO)NC(=O)[C@H](CO)NC(=O)[C@H](Cc1c[nH]cn1)NC(=O)[C@H](CCCNC(=N)N)NC(=O)[C@H](CC(C)C)NC(=O)[C@H](Cc1ccccc1)NC(=O)[C@H](CC(N)=O)NC(=O)[C@H](C)NC(=O)[C@H](CC(C)C)NC(=O)[C@H](CCCNC(=N)N)NC(=O)[C@H](CCC(N)=O)NC(=O)[C@@H](NC(=O)[C@H](C)NC(=O)[C@@H]1CSSC[C@H](NC(=O)[C@H](CCCCN)NC(=O)CC[C@H](NC(=O)CCCCCCCCCCCCCCCCCCC(=O)O)C(=O)O)C(=O)N[C@@H](CC(N)=O)C(=O)N[C@@H]([C@@H](C)O)C(=O)N[C@@H](C)C(=O)N[C@@H]([C@@H](C)O)C(=O)N1)[C@@H](C)O)C(=O)N1CCC[C@H]1C(=O)N[C@@H](CO)C(=O)N[C@@H](CO)C(=O)N[C@H](C(=O)N[C@@H](CC(N)=O)C(=O)N[C@H](C(=O)NCC(=O)N[C@@H](CO)C(=O)N[C@@H](CCCCN)C(=O)N[C@H](C(=O)N[C@@H](Cc1ccc(O)cc1)C(N)=O)[C@@H](C)O)C(C)C)[C@@H](C)O` [Example 34], in data set [1], the “ThT pH 4.0 lag time (h)” value is 35 h. Besides, the solubility at 18 h in data set [2] (setting [4]), in data set [2] (setting [5]), in data set [2] (setting [6]), in data set [2] (setting [7]), in data set [2] (setting [8]) and in data set [2] (setting [9]) was at least 200 µM in each case. Further, the solubility at 18 h in data set [2] (setting [10]) and in data set [2] (setting [11]) was at least 200 µM each time. In data set [3] (Table 7), the concentration for half-maximal inhibition (IC50) came out at 1.72 nM. For the same compound, the “Ratio rCT/rAmylin binding” value in data set [3] (setting [12]), in data set [3] (setting [13]) and in data set [3] (setting [14]) was 52.0 in each case.

Regarding `CC[C@H](C)[C@H](NC(=O)[C@H](C)NC(=O)CNC(=O)[C@H](Cc1ccccc1)NC(=O)[C@H](CC(N)=O)NC(=O)[C@@H]1CCCN1C(=O)[C@H](CO)NC(=O)[C@H](CO)NC(=O)[C@H](Cc1c[nH]cn1)NC(=O)[C@H](CCCNC(=N)N)NC(=O)[C@H](CC(C)C)NC(=O)[C@H](Cc1ccccc1)NC(=O)[C@H](CC(N)=O)NC(=O)[C@H](C)NC(=O)[C@H](CC(C)C)NC(=O)[C@H](CCCNC(=N)N)NC(=O)[C@H](CCC(N)=O)NC(=O)[C@@H](NC(=O)[C@H](C)NC(=O)[C@@H]1CSSC[C@H](NC(=O)[C@@H](N)CCCCNC(=O)CC[C@H](NC(=O)CCCCCCCCCCCCCCCCCCC(=O)O)C(=O)O)C(=O)N[C@@H](CC(N)=O)C(=O)N[C@@H]([C@@H](C)O)C(=O)N[C@@H](C)C(=O)N[C@@H]([C@@H](C)O)C(=O)N1)[C@@H](C)O)C(=O)N1CCC[C@H]1C(=O)N[C@@H](CO)C(=O)N[C@@H](CO)C(=O)N[C@H](C(=O)N[C@@H](CC(N)=O)C(=O)N[C@H](C(=O)NCC(=O)N[C@@H](CO)C(=O)N[C@@H](CCCCN)C(=O)N[C@H](C(=O)N[C@@H](Cc1ccc(O)cc1)C(N)=O)[C@@H](C)O)C(C)C)[C@@H](C)O` [Example 35] (H-K([γGlu-C20 diacid])CNTATCATQRLANFLRHSSPNFGAIPSSTNVGSKTY-NH2; disulfide 2-7; N-terminus assumed), in data set [1], the “ThT pH 4.0 lag time (h)” value was 45 h. Also, the solubility at 18 h in data set [2] (setting [4]), in data set [2] (setting [5]), in data set [2] (setting [6]), in data set [2] (setting [7]), in data set [2] (setting [8]) and in data set [2] (setting [9]) was at least 200 µM each time. Further, the solubility at 18 h in data set [2] (setting [10]) and in data set [2] (setting [11]) was at least 200 µM each time. The IC50 in data set [3] (Table 7) worked out at 0.948 nM. The “Ratio rCT/rAmylin binding” value in data set [3] (setting [12]), in data set [3] (setting [13]) and in data set [3] (setting [14]) was 65.1 throughout.
